Assay results: patent US20240246941A1, “SUBSTITUTED 4-(3-AMINOPROP-1-YL)AMINOQUINOLINE ANALOGS AS MODULATORS OF MELANOMA-ASSOCIATED ANTIGEN 11 UBIQUITIN LIGASE” (ST. JUDE CHILDREN'S RESEARCH HOSPITAL, INC., priority 2020, published 2024)
pIC50: −log10 of the molar value.

target: interaction between GST-MAGEA11 MHD and FAM-PCF11_4 peptide (MAGE-A11:PCF11) (Homo sapiens (Human), UniProt P43364); experiment: TR-FRET dose response competition assay for disruption of MAGE-A11:PCF11 binding; settings: Dose response TR-FRET screening of nine scaffold groups against MAGE-A11:PCF11; read-out: consensus IC50
Method in brief: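 Competition TR-FRET at room temperature in 50 mM Tris pH 7.5, 20 mM MgCl2, 0.1 mg/ml BSA, 1 mM DTT: final 5 nM GST-MAGEA11 MHD, 5 nM Tb-anti-GST, 200 nM FAM-PCF11_4, 90 min. Ratio 520/490 nm converted to % inhibition; IC50 from sigmoidal fit.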

interaction between GST-MAGEA11 MHD and FAM-PCF11_4 peptide (MAGE-A11:PCF11), sequence (P43364 218-429): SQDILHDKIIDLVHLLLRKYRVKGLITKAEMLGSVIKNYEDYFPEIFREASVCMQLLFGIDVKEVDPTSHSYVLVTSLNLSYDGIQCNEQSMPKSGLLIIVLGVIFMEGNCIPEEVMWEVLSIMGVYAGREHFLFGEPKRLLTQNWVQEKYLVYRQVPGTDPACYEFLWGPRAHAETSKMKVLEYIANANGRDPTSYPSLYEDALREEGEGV

Structure (SMILES)	pIC50
CC(C)(C)c1ccc(-c2ccc3c(NCCCNCc4cccc5c4OCO5)ccnc3c2)cc1 [SJ000311288-1]	5.16
Cn1c(=O)c2nc(-c3ccccc3)[nH]c2n(C)c1=O [SJ000288094-2]	4.16
COc1cc2nc(N3CCN(C(=O)C4COc5ccccc5O4)CC3)nc(N)c2cc1OC (centres unmarked) [SJ000113084-10]	4.24
COP(=O)(OC)c1nc(-c2ccc([N+](=O)[O-])cc2)oc1N1CCOCC1 [SJ000092444-1]	4.16
Cn1c(-c2ccc(C(F)(F)F)cc2)nc2c1c(=O)[nH]c(=O)n2Cc1ccccc1 [SJ000404631-1]	4.16
Cc1cc(C)nc(Nc2nc(N)c3ccccc3n2)n1 [SJ000189299-1]	4.16
COc1cccc(CNCCCNc2ccnc3cc(CC4CCCCC4)ccc23)c1O [SJ000311251-1]	4.53
COc1cc2nc(N3CCN(C(=O)OCc4ccccc4)C(C(=O)NC(C)(C)C)C3)nc(N)c2cc1OC (centres unmarked) [SJ000288233-2]	4.16
CCn1c2ccccc2c2cc(CNCC(C)O)ccc21 (centres unmarked) [SJ000505727-1]	4.16
COc1ccc(F)cc1CNCCCNc1ccnc2cc(Oc3ccc(Cl)cc3)ccc12 [SJ000311229-1]	4.71
Cc1nc2cc(-c3ccccc3)sc2c(=O)n1N [SJ000296471-1]	4.16
Cc1ccc(S(=O)(=O)c2nc(-c3ccccc3Cl)oc2N2CCOCC2)cc1 [SJ000230856-1]	5.36
Oc1ccccc1CNCCCNc1ccnc2cc(Cl)ccc12 [SJ000311187-1]	4.16
Cc1ccccc1Nc1nc(N)c2ccccc2n1 [SJ000192476-1]	4.16
CCCn1c(=O)[nH]c(=O)c2c1nc(-c1cccc(F)c1)n2CCOC [SJ000378928-1]	4.16
CCCn1c(=O)[nH]c(=O)c2c1nc(-c1ccc(F)c(F)c1)n2CCOC [SJ000460758-1]	4.16
FC(F)(F)Oc1ccc(CNCCCNc2ccnc3cc(Cl)ccc23)cc1 [SJ000521025-1]	4.16
COc1ccc(F)cc1CNCCCNc1ccnc2cc(C3CCCCC3)ccc12 [SJ000311265-1]	4.62
COc1ccc(F)cc1CNCCCNc1ccnc2cc(Cc3ccccc3)ccc12 [SJ000311309-1]	4.74
O=C(CNC(=O)c1ccc2[nH]c3ccccc3c2c1)NCCO [SJ000031064-1]	4.16
C=CCOc1ccc(-c2nc3c(c(=O)[nH]c(=O)n3Cc3ccccc3)n2CCCOC)cc1 [SJ000378880-1]	4.16
Fc1cccc(CNCCCNc2ccnc3cc(C(F)(F)F)ccc23)c1 [SJ000521066-1]	4.16

Structure (SMILES)	pIC50
Clc1ccc(Oc2ccc3c(NCCCNCc4cccc5c4OCO5)ccnc3c2)cc1 [SJ000311228-1]	4.75
Cc1cccc(NC2=C(N)C(=O)c3ccccc3C2=O)c1 [SJ000024934-1]	4.16
COc1cc(Cc2ccc3c(NCCCNCc4cc(F)ccc4OC)ccnc3c2)cc(OC)c1 [SJ000311313-1]	4.47
FC(F)(F)c1cccc(CNCCCNc2ccnc3cc(Cl)ccc23)c1 [SJ000521024-1]	4.16
O=S(=O)(c1ccccc1)c1nc(-c2ccc(Br)cc2)oc1N1CCOCC1 [SJ000244320-1]	5.06
COc1cccc(CNCCCNc2ccnc3cc(CCC(C)C)ccc23)c1O [SJ000311247-1]	4.16
COc1ccc(C2Nc3ccccc3C(=O)N2Cc2ccccc2)cc1COc1ccccc1F (centres unmarked) [SJ000295328-2]	4.16
O=C1c2ccccc2NC(c2ccc3c(c2)OCO3)N1Cc1ccccc1 (centres unmarked) [SJ000288627-1]	4.16
CCCn1c(-c2ccc(C#N)cc2)nc2c1c(=O)[nH]c(=O)n2Cc1ccccc1 [SJ000383781-1]	4.16
C=C1C(Cl)=C(N2CCN(S(=O)(=O)c3ccc(Cl)cc3)CC2)C(=O)c2ccccc21 [SJ000029651-1]	4.16
CCCS(=O)(=O)N1CCN(Cc2ccc3c(c2)c2ccccc2n3CC)CC1 [SJ000167951-1]	4.72
CCCN1C(=O)c2ccccc2NC1c1ccc(Cl)cc1Cl (centres unmarked) [SJ000288424-2]	4.16
COc1cccc(CNCCCNc2ccnc3cc(Cc4cccc(C(F)(F)F)c4)ccc23)c1O [SJ000311299-1]	4.56
FC(F)(F)c1ccc2c(NCCCNCc3c4ccccc4cc4ccccc34)ccnc2c1 [SJ000361126-1]	4.16
CCCn1c(-c2ccc(Cl)cc2)nc2c1c(=O)[nH]c(=O)n2Cc1ccccc1 [SJ000375541-1]	4.16
CCn1c2ccccc2c2cc(CN3CCc4nnc(CNC(=O)c5ccccc5)n4CC3)ccc21 [SJ000307948-1]	4.16
CCn1c2ccccc2c2cc(CNCc3ccc(OC)cc3)ccc21 [SJ000112430-1]	4.16
COc1ccc(F)cc1CNCCCNc1ccnc2cc(-c3ccc4c(c3)OCO4)ccc12 [SJ000311293-1]	4.52
FC(F)(F)c1ccc2c(NCCCNCc3ccccc3)ccnc2c1 [SJ000361107-1]	4.16
CCCCn1c(=O)[nH]c(=O)c2c1nc(-c1ccc(CC)c([N+](=O)[O-])c1)n2C [SJ000378868-1]	4.16
O=C(Cn1cnc2cc(-c3ccc(Cl)cc3)sc2c1=O)NCc1ccccc1F [SJ000455225-1]	4.16
COc1ccc(Oc2ccc3c(NCCCNCc4cccc5c4OCO5)ccnc3c2)cc1 [SJ000311220-1]	4.36

Structure (SMILES)	pIC50
c1ccc(CCc2ccc3c(NCCCNCc4cccc5c4OCO5)ccnc3c2)cc1 [SJ000311257-1]	4.21
COc1ccc(-c2nc(C#N)c(N3CC(C)OC(C)C3)o2)cc1 (centres unmarked) [SJ000478212-1]	4.16
CCCn1c(=O)[nH]c(=O)c2c1nc(-c1ccc(OC)c(Br)c1)n2CCOC [SJ000378893-1]	4.16
CCCCCOc1ccc(N(C(C)=O)C2=C(Cl)C(=O)c3ccccc3C2=O)cc1 [SJ000032724-1]	4.55
CCNC1=C(Cl)C(=O)c2ccccc2C1=O [SJ000157082-1]	4.16
CN(C)c1ccc(NC2=C(Cl)C(=O)c3ccccc3C2=O)cc1 [SJ000109503-1]	5.48
COc1ccc(F)cc1CNCCCNc1ccnc2cc(Oc3ccc(C(C)(C)C)cc3)ccc12 [SJ000311237-1]	5.20
COc1ccc(F)cc1CNCCCNc1ccnc2cc(CCc3ccccc3)ccc12 [SJ000311256-1]	4.43
CSc1ccc(-c2nc3c(c(=O)[nH]c(=O)n3CC(C)C)n2CC(C)C)cc1 [SJ000394956-1]	4.16
CCCn1c(-c2ccc(C(C)(C)C)cc2)nc2c1c(=O)[nH]c(=O)n2Cc1ccccc1 [SJ000375920-1]	4.16
COc1ccccc1Nc1nc(N)c2ccccc2n1 [SJ000192505-1]	4.16
COc1ccc(C2Nc3ccccc3C(=O)N2Cc2ccccc2)cc1Cn1cc([N+](=O)[O-])cn1 (centres unmarked) [SJ000288433-1]	4.16
COP(=O)(OC)c1nc(-c2ccc(Br)cc2)oc1N1CCOCC1 [SJ000090176-1]	4.16
Fc1c(F)c(F)c(CNCCCNc2ccnc3cc(Cl)ccc23)c(F)c1F [SJ000520910-1]	4.16
CCC(C)c1ccc(C2=C(c3ccc([N+](=O)[O-])cc3)C(=O)OC2)cc1 (centres unmarked) [SJ000368165-1]	4.16
CC(C)NC(=O)NC(=O)Cn1cnc2cc(-c3ccccc3)sc2c1=O [SJ000425388-1]	4.16
O=C1c2ccccc2NC(c2ccc(F)cc2F)N1CCCN1CCOCC1 (centres unmarked) [SJ000795275-1]	4.17
COc1cccc(-c2nc(S(=O)(=O)c3ccc(C)cc3)c(N3CCOCC3)o2)c1 [SJ000038123-1]	4.76
COc1ccc(-c2cc3ncn(CC(=O)O)c(=O)c3s2)cc1 [SJ000397503-1]	4.16
C=C(C)CN(CC)C(=O)Cn1cnc2cc(-c3ccc(OC)cc3)sc2c1=O [SJ000429044-1]	4.16

same assay, conditions: Table 5, dose response TR-FRET screening of 59 quinoline compounds against MAGE-A11:PCF11; read-out: TR-FRET IC50

Structure (SMILES)	pIC50
Clc1ccc2c(NCCCNCc3csc4ccccc34)ccnc2c1 [SJ000521033-1]	< 4.15
COC(=O)CCCCCNCCCNc1ccnc2cc(Cl)ccc12 [SJ000521021-1]	4.50
CC(C)(C)c1ccc(Oc2ccc3c(NCCCNCc4ccco4)ccnc3c2)cc1 [SJ000311234-1]	4.49
c1coc(CNCCCNc2ccnc3cc(CC4CCCCC4)ccc23)c1 [SJ000311250-1]	4.26
Clc1ccc2c(NCCCCN(Cc3ccccc3)Cc3ccc4[nH]ccc4c3)ccnc2c1 [SJ000520434-1]	4.63

same assay, conditions: Table 8, representative compounds; read-out: TR-FRET IC50

Structure (SMILES)	pIC50
COc1ccc(F)cc1CNCCCNc1ccnc2cc(Cc3cccc(C(F)(F)F)c3)ccc12 [SJ000311301]	4.65
Fc1cccc(C(F)(F)F)c1CNCCCNc1ccnc2cc(C(F)(F)F)ccc12 [SJ000521059]	4.16
Fc1ccc(Cc2ccc3c(NCCCNCc4cccc5c4OCO5)ccnc3c2)cc1 [SJ000311244]	4.37
Fc1ccccc1CNCCCNc1ccnc2cc(Cl)ccc12 [SJ000523060]	4.16
COc1ccc(F)cc1CNCCCNc1ccnc2cc(Cc3ccccc3)ccc12 [SJ000311309]	4.74
COc1ccccc1Oc1ccc2c(NCCCNCc3cccc(OC)c3O)ccnc2c1 [SJ000311211]	4.16
COc1cccc(CNCCCNc2ccnc3cc(Oc4ccccc4)ccc23)c1O [SJ000311207]	4.16
COc1ccc(F)cc1CNCCCNc1ccnc2cc(CC3CCCCC3)ccc12 [SJ000311253]	4.58
Fc1ccc(Oc2ccc3c(NCCCNCc4cccc5c4OCO5)ccnc3c2)cc1 [SJ000311224]	4.22
CCc1ccc(CNCCCNc2ccnc3cc(Cl)ccc23)cc1 [SJ000521039]	4.16
COc1ccc(F)cc1CNCCCNc1ccnc2cc(Oc3cccc(N(C)C)c3)ccc12 [SJ000311233]	5.25
Clc1cccc(Cl)c1Cc1ccc2c(NCCCNCc3cccc4c3OCO4)ccnc2c1 [SJ000311316]	4.96
COc1ccc(F)cc1CNCCCNc1ccnc2cc(CCC(C)C)ccc12 [SJ000311249]	4.16
CN(C)c1cccc(Oc2ccc3c(NCCCNCc4cccc5c4OCO5)ccnc3c2)c1 [SJ000311232]	4.16
